The values below come from US20160281089A1, “PREVENTION OF VIRAL INFECTIVITY” (priority 2005, published 2016).

The test system of data set [1] is HIV virions. The experiment in a line: ODN-mediated cleavage of viral RNA in intact HIV virions (real-time PCR, RT-PCR, agarose gel). The format is biochemical. The settings on record: 0.5 μM ODN, intact HIV virions, RPMI medium, 6 hours. On the technique in general: In qPCR the cycle at which signal appears reflects the starting amount.
In data set [2] the target is T1, RNase H activity of HIV RT/RNaseH (Human immunodeficiency virus type 1 group M subtype B, UniProt P04585). The experiment in a line: Permeabilized HIV virions with ODN A and Illimaquinone, viral RNA degradation by real-time PCR. The note with it: 150 μM Illimaquinone, 50 nM ODN A, 0.1% NP-40 permeabilized virions, 30 min 37° C., without added RT/RNaseH.
The target in data set [3] is T1, RNase H activity of HIV RT/RNaseH. Further details: the HIV RT/RNase H is a heterodimer of p66 and p51 with and without RNase H; endogenous in cells; host or cells: permeabilized HIV virions (virion-associated enzyme); panel B has added recombinant RT/RNaseH at 0.05 units/µl. The settings on record: previously described; cited from earlier work.
Data set [4] has as its system HIV virions. Briefly: Infectivity of ODN-pre-incubated HIV virions in C81-66/45 cells. The settings on record: for binding/uptake of pre-treated virions by host cells: pre-incubation 4 hours, HIV RNA in infected cells 1 hour post-infection. The format is cell-based. On the procedure:
As a next step we investigated the antiviral effect of ODNs by testing the infectivity of treated virions in cell culture studies. We used ODN A, ODN T, as PPT and ODN CO. 2×10^5 C81-66/45 cells were infected with virions pre-incubated with different ODNs at 0.01 MOI for 1, 2 or 4 hours prior to infection. RNA was extracted from infected cells and HIV replication was analysed by real-time PCR 3 days post-infection.
To test the specificity of suppression of viral replication, the effect of ODN A on the infectivity of virions was compared with control ODNs. Virions were pre-treated with the ODNs and HIV replication in infected cells was analysed by real-time PCR, 5 days (FIG. 6A) or 20 days post-infection (FIG. 6B) and by measuring p24 production in the supernatant of the infected cells (FIG. 6C).
(A) HIV virions were incubated with 0.5 μM of ODNs for 1, 2 or 4 hours. C81-66/45 cells were infected with pre-incubated virions, at 0.01 MOI. RNA was extracted from infected cells and HIV replication was analysed by real-time PCR, 3 days post-infection (p.i.).
(B) The same experiment as in (A) was performed with ODN T, ODN CO, asPPT and ODN A pre-treated virions.
(D) C81-66145 cells were infected with virions pre-incubated with 0.5 or 5 μM of ODNs for 4 h, at an MOI of 1. RNA was extracted from infected cells and HIV replication was analysed by real-time PCR, 3 days post-infection.
(E) C81-66/45 cells were infected with virions pre-incubated with ODN A and ODN Sc for 4 h, at an MOI of 0.01. RNA was extracted from infected cells and HIV replication was analysed by real-time PCR, 1 h and 24 h post-infection. (F) The same experiment as in (E) was performed except for using ODN T, ODN B and ODN A, 1 hour post-infection.
C81-66/45 cells were infected with virions pre-incubated with ODN A, ODN T, ODN CO or as PPT for 4 h, at MOI of 0.01. RNA was extracted from infected cells and HIV replication was analysed by real-time PCR, 5 days p.i. (A), and 20 days p.i. (B); by measuring p24 production in the medium of the infected cells (C) or by RT-PCR, 11 days p.i. (D).

The next data set has as its system SFFV. Briefly: NIH 3T3 cells infected with ODN-pretreated SFFV. The settings on record: three days post-infection, real-time RT-PCR. Format: cell-based. The source says:
As next step we investigated the antiviral effect of ODNs by testing pre-treated virions for residual infectivity as has been described before for HIV particles. SFFV particles were pretreated with ODN M or its variants and used to infect NIH 3T3 cells. After three days RNA was extracted from infected cells and from the supernatants and SFFV was quantified by real-time RT-PCR and analysis of amplification products (FIG. 9b).
b. NIH 3T3 cells were infected with SFFV pretreated with various ODNs. After three days the cells and supernatants were harvested and analyzed for SFFV RNA levels by quantitative real time RT-PCR (top) and RT-PCR (bottom) using GAPDH for comparison.

“TTTGGGGGGTTCTTCCTCCTTTCCTTTTTCGCCCGTCCGTTGCGTTGATTTTTT (chemistry not given here) [ODN Sc, reference compound]”: the “amount of undigested viral RNA (real-time PCR, primers covering PPT region)” value (“amount of undigested viral RNA” below) with HIV virions [1] is recorded as “less efficient cleavage of the viral RNA”. The same measure, in the same setting: then “TTTTCTTTTGGGGGGACTGGTTGGGTTTTCCCTTCCAGTCCCCCCTTTTCTTTT (chemistry not given here) [ODN H, triple substitution in the passenger strand]”, with “less efficient cleavage of the viral RNA”. Regarding `C=C1CCC[C@H]2[C@](C)(CC3=C(O)C(=O)C=C(OC)C3=O)[C@@H](C)CC[C@]12C` [Illimaquinone], the “ODN A-mediated viral RNA cleavage in presence of Illimaquinone” value in data set [2] is “failed to induce cleavage”. For the same molecule, the “inhibition of RNase H activity of HIV RT/RNaseH” value in data set [3] was “specifically inhibit the RNase H activity”. Turning to “AAAAGAAAAGGGGGGACTGGTTGGGTTTTCCCTTCCAGTCCCCCCTTTTCTTTT (chemistry not given here) [ODN T, passenger strand fully complementary to the antisense strand]”, the “amount of undigested viral RNA” value in the data set with HIV virions [1] is “less efficient cleavage of the viral RNA”. Further, in the data set on HIV virions [4], the “binding/uptake of pre-treated virions by host cells” value is recorded as “uptake similar to ODN A”. For the same molecule, in the data set on HIV virions [4] (virions pre-incubated 4 hours with 0.5 μM ODN, 0.01 MOI, 3 days post-infection), the “HIV replication in infected cells (real-time PCR)” value is “low but detectable levels”. With “TTTTCTTTTGCGCGCTTTGGTTGGGTTTTCCCTTCCAGTCCCCCCTTTTCTTTT (chemistry not given here) [ODN NT, triple substitution in the passenger strand at site complementary to CCCCCC]”, the “amount of undigested viral RNA” value with HIV virions [1] was “less efficient cleavage of the viral RNA”. In the case of “TCTTTTTGCGCGCTTTGTTTGTTTTTTCTTTCATTCCCCCCTTTTTCT (chemistry not given here) [ODN CG, ODN M variant with a triple nucleotide change in the second strand (SFFV tests)]”, the “amount of undigested viral RNA” value with HIV virions [1] was “antiviral activity similar to ODN A”. Also, in the data set with SFFV, the “SFFV RNA in infected cells and supernatant” value is “clearly less efficient”.

“TTTCTTTTGGGGGGTTTGGTTGGGTTTTCCCTTCCAGTCCCCCCTTTTCTTT (chemistry not given here) [ODN B, one nucleotide removed from both 5′ and 3′ ends of ODN A]”: the “amount of undigested viral RNA” value in the data set with HIV virions [1] is “less efficient cleavage of the viral RNA”. Besides, the “binding/uptake of pre-treated virions by host cells” value with HIV virions [4] is “uptake similar to ODN A”. For “TCTTTTTGGGGGGAATGTTTGTTTTTTCTTTCATTCCCCCCTTTTTCT (DNA, backbone and methylation of C not given here) [ODN S, ODN M variant, two nucleotide changes in the second strand]”, in the data set on SFFV, the “SFFV RNA in infected cells and supernatant” value is on record as “clearly less efficient”.
